Experimental data: patent US8629112B2, “Template-fixed peptidomimetics with CXCR7 modulating activity” (priority 2010, dated 2014)
Read-outs that look alike come from different tables or passages of the source. Square brackets hold non-standard residues; d marks the D form. Peptide text beside a SMILES is read from it. * marks the point of attachment. Oic = O=C(O)[C@@H]1C[C@@H]2CCCC[C@@H]2N1; 1Nal = N[C@@H](Cc1cccc2ccccc12)C(=O)O; 2Nal = N[C@@H](Cc1ccc2ccccc2c1)C(=O)O; Tiq1c(1S) = O=C(O)[C@H]1NCCc2ccccc21; His(π-Me) = Cn1cncc1C[C@H](N)C(=O)O; cisHyp = O=C(O)[C@@H]1C[C@H](O)CN1; Tic = O=C(O)[C@@H]1Cc2ccccc2CN1; dTic = O=C(O)[C@H]1Cc2ccccc2CN1; dOrn = NCCC[C@@H](N)C(=O)O; Orn = NCCC[C@H](N)C(=O)O; Aze = O=C(O)[C@@H]1CCN1; Bn = c1ccc(C*)cc1

Molecular target: T1, CXCR7 (Homo sapiens, UniProt P25106)
T1 construct: host or cells: CHO (PathHunter CHO-CXCR7 β-arrestin cells)
T1 sequence (P25106 whole entry): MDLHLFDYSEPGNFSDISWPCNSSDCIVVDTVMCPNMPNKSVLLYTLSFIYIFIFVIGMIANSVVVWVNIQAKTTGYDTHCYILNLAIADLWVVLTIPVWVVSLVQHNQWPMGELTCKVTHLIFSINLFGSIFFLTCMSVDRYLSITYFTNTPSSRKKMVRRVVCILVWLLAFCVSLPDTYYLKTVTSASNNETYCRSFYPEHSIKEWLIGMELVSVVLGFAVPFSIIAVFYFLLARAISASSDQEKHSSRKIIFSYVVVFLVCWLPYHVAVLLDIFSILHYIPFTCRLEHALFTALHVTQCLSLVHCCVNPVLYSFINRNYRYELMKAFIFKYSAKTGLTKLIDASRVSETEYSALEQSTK
Assay: CXCR7 β-arrestin recruitment assay (PathHunter CHO-CXCR7, agonistic assay)
Assay type: cell-based
Method: Lyophilized peptides were weighed on a Microbalance (Mettler MX5) and dissolved in DMSO to a final concentration of 10 mM unless otherwise stated. Stock solutions were kept at +4° C., and protected from light.
2.2 CXCR7 β-Arrestin Recruitment Assay
The PathHunter CHO-CXCR7 (DiscoverX) assay was performed according to the manufacturer's protocol. In brief, CHO CXCR7 β-arrestin cells were seeded at a density of 5000 cells per well in 40 μl of F12 medium in a 96-half volume well black culture plate and incubated overnight at 37° C. in a humidified atmosphere with 5% CO2. The next day, serial dilutions of PEM compounds have been prepared in DMSO and subsequently diluted in HBSS buffer containing 0.1% BSA.
For agonistic assay, 10 μl of compound solution or a solution of stromal cell-derived factor-1 (SDF-1) as positive control was added to the cells with a final DMSO concentration of 1% (v/v). The plate was incubated for 90 min at 37° C. in 5% CO2 incubator with gentle shaking (300 rpm) before addition of 40 ul of detection reagent per well. Reaction was developed 90 min at room temperature in the dark with shaking, and chemiluminescence was measured with a Topcount (Perkin Elmer) luminescence counter.

[1] = CHO CXCR7 β-arrestin cells, agonistic assay, 90 min at 37° C., chemiluminescence, read-out: β-Arrestin EC50

SMILES: C[C@@H]1NC(=O)[C@@H]2Cc3ccccc3CN2C(=O)[C@H]2CCCN2C(=O)[C@H](CCCNC(=N)N)NC(=O)[C@H](Cc2c[nH]c3ccccc23)NC(=O)[C@@H](Cc2ccccc2)NC1=O [Ex. 1, cyclo(-Ala-^DPhe-Trp-Arg-^DPro-Tic-)] (cyclo(A[dF]WR[dP][Tic]))
- EC50 [1]: 163 ± 40.9 nM

SMILES: N=C(N)NCCC[C@@H]1NC(=O)[C@H](Cc2c[nH]c3ccccc23)NC(=O)[C@@H](Cc2ccccc2)NC(=O)[C@H](Cc2ccccc2)NC(=O)[C@@H]2Cc3ccccc3CN2C(=O)[C@H]2CCCN2C1=O [Ex. 2, cyclo(-Phe-^DPhe-Trp-Arg-^DPro-Tic-)] (cyclo(F[dF]WR[dP][Tic]))
- EC50 [1]: 22.5 ± 13.7 nM

SMILES: Cn1cncc1C[C@@H]1NC(=O)[C@@H]2Cc3ccccc3CN2C(=O)[C@H]2CCCN2C(=O)[C@H](CCCNC(=N)N)NC(=O)[C@H](Cc2c[nH]c3ccccc23)NC(=O)[C@@H](Cc2ccccc2)NC1=O [Ex. 4, cyclo(-His(Me)-^DPhe-Trp-Arg-^DPro-Tic-)] (cyclo([His(π-Me)][dF]WR[dP][Tic]))
- EC50 [1]: 32.5 ± 3.9 nM

SMILES: N=C(N)NCCC[C@@H]1NC(=O)[C@H](Cc2c[nH]c3ccccc23)NC(=O)[C@@H](Cc2c[nH]c3ccccc23)NC(=O)[C@H](Cc2c[nH]c3ccccc23)NC(=O)[C@@H]2Cc3ccccc3CN2C(=O)[C@H]2CCCN2C1=O [Ex. 10, cyclo(-Trp-^DTrp-Trp-Arg-^DPro-Tic-)] (cyclo(R[dP][Tic]W[dW]W))
- EC50 [1]: 64.9 ± 113 nM

SMILES: O=C1N[C@@H](Cc2c[nH]cn2)C(=O)N2CCC[C@@H]2C(=O)N2Cc3ccccc3C[C@H]2C(=O)N[C@@H](Cc2c[nH]c3ccccc23)C(=O)N[C@H](Cc2ccccc2)C(=O)N[C@H]1Cc1c[nH]c2ccccc12 [Ex. 23, cyclo(-Trp-^DPhe-Trp-His-^DPro-Tic-)] (cyclo(H[dP][Tic]W[dF]W))
- EC50 [1]: 18.3 ± 17.6 nM

SMILES: N=C(N)NCCC[C@@H]1NC(=O)[C@H](Cc2c[nH]c3ccccc23)NC(=O)[C@@H](Cc2ccccc2)NC(=O)[C@H](Cc2c[nH]c3ccccc23)NC(=O)[C@@H]2c3ccccc3CCN2C(=O)[C@H]2CCCN2C1=O [Ex. 25, cyclo(-Trp-^DPhe-Trp-Arg-^DPro-Tiq-)] (cyclo(R[dP][Tiq1c(1S)]W[dF]W))
- EC50 [1]: 0.4 nM

SMILES: N=C(N)NCCC[C@@H]1NC(=O)[C@H](Cc2c[nH]c3ccccc23)NC(=O)[C@@H](Cc2ccccc2)NC(=O)[C@H](Cc2c[nH]c3ccccc23)NC(=O)[C@@H]2C[C@@H]3CCCC[C@@H]3N2C(=O)[C@H]2CCCN2C1=O [Ex. 26, cyclo(-Trp-^DPhe-Trp-Arg-^DPro-Oic-)] (cyclo([Oic]W[dF]WR[dP]))
- EC50 [1]: 0.8 ± 0.5 nM

SMILES: N=C(N)NCCC[C@@H]1NC(=O)[C@H](Cc2c[nH]c3ccccc23)NC(=O)[C@@H](Cc2ccccc2)NC(=O)[C@H](Cc2c[nH]c3ccccc23)NC(=O)[C@@H]2C[C@H](OCc3ccccc3)CN2C(=O)[C@H]2CCCN2C1=O [Ex. 27, cyclo(-Trp-^DPhe-Trp-Arg-^DPro-(4S)-Hyp(Bn)-)] (cyclo(R[dP][cisHyp](Bn)W[dF]W))
- EC50 [1]: 1.7 ± 1.1 nM

SMILES: N=C(N)NCCC[C@@H]1NC(=O)[C@H](Cc2c[nH]c3ccccc23)NC(=O)[C@@H](Cc2ccccc2)NC(=O)[C@H](Cc2c[nH]c3ccccc23)NC(=O)[C@@H]2CCCN2C(=O)[C@H]2Cc3ccccc3CN2C1=O [Ex. 40, cyclo(-Trp-^DPhe-Trp-Arg-^DTic-Pro-)] (cyclo(PW[dF]WR[dTic]))
- EC50 [1]: 83.6 ± 22.7 nM

SMILES: CC[C@H](C)[C@@H]1NC(=O)[C@@H](Cc2c[nH]cn2)NC(=O)[C@H](Cc2cccc3ccccc23)NC(=O)[C@@H]2CCN2C(=O)[C@H]2CCCN2C(=O)[C@H](CCCNC(=N)N)NC1=O [Ex. 42, cyclo(-1Nal-^DHis-Ile-Arg-^DPro-Azt-)] (cyclo([1Nal][dH]IR[dP][Aze]))
- EC50 [1]: 85.7 ± 76.6 nM

SMILES: N=C(N)NCCC[C@@H]1NC(=O)[C@H](Cc2c[nH]c3ccccc23)NC(=O)[C@@H](Cc2ccccc2)NC(=O)[C@H](Cc2c[nH]cn2)NC(=O)[C@@H]2Cc3ccccc3CN2C(=O)[C@H]2CCCN2C1=O [compound 3, cyclo(-His-^DPhe-Trp-Arg-^DPro-Tic-)] (cyclo(H[dF]WR[dP][Tic]))
- EC50 [1]: 32.1 ± 3.9 nM

SMILES: N=C(N)NCCC[C@@H]1NC(=O)[C@H](Cc2c[nH]c3ccccc23)NC(=O)[C@@H](Cc2ccccc2)NC(=O)[C@H](Cc2ccc(O)cc2)NC(=O)[C@@H]2Cc3ccccc3CN2C(=O)[C@H]2CCCN2C1=O [compound 5, cyclo(-Tyr-^DPhe-Trp-Arg-^DPro-Tic-)] (cyclo(R[dP][Tic]Y[dF]W))
- EC50: 11.5 ± 9 nM

SMILES: N=C(N)NCCC[C@@H]1NC(=O)[C@@H]2Cc3ccccc3CN2C(=O)[C@H]2CCCN2C(=O)[C@H](CCCNC(=N)N)NC(=O)[C@H](Cc2c[nH]c3ccccc23)NC(=O)[C@@H](Cc2ccccc2)NC1=O [compound 6, cyclo(-Arg-^DPhe-Trp-Arg-^DPro-Tic-)] (cyclo(R[dF]WR[dP][Tic]))
- EC50 [1]: 12.8 ± 4.5 nM

SMILES: N=C(N)NCCC[C@@H]1NC(=O)[C@H](Cc2c[nH]c3ccccc23)NC(=O)[C@@H](Cc2ccccc2)NC(=O)[C@H](Cc2cccc3ccccc23)NC(=O)[C@@H]2Cc3ccccc3CN2C(=O)[C@H]2CCCN2C1=O [compound 7, cyclo(-1Nal-^DPhe-Trp-Arg-^DPro-Tic-)] (cyclo([1Nal][dF]WR[dP][Tic]))
- EC50 [1]: 61.6 ± 1.6 nM

SMILES: N=C(N)NCCC[C@@H]1NC(=O)[C@H](Cc2c[nH]c3ccccc23)NC(=O)[C@@H](Cc2ccccc2)NC(=O)[C@H](Cc2ccc3ccccc3c2)NC(=O)[C@@H]2Cc3ccccc3CN2C(=O)[C@H]2CCCN2C1=O [compound 8, cyclo(-2Nal-^DPhe-Trp-Arg-^DPro-Tic-)] (cyclo([2Nal][dF]WR[dP][Tic]))
- EC50 [1]: 8.9 ± 5.8 nM

SMILES: N=C(N)NCCC[C@@H]1NC(=O)[C@H](Cc2c[nH]c3ccccc23)NC(=O)[C@@H](Cc2ccccc2)NC(=O)[C@H](Cc2c[nH]c3ccccc23)NC(=O)[C@@H]2Cc3ccccc3CN2C(=O)[C@H]2CCCN2C1=O [compound 9, cyclo(-Trp-^DPhe-Trp-Arg-^DPro-Tic-)] (cyclo(R[dP][Tic]W[dF]W))
- EC50 [1]: 4.8 ± 4.4 nM

SMILES: N=C(N)NCCC[C@@H]1NC(=O)[C@H](Cc2c[nH]c3ccccc23)NC(=O)[C@@H](Cc2c[nH]cn2)NC(=O)[C@H](Cc2c[nH]c3ccccc23)NC(=O)[C@@H]2Cc3ccccc3CN2C(=O)[C@H]2CCCN2C1=O [compound 11, cyclo(-Trp-^DHis-Trp-Arg-^DPro-Tic-)] (cyclo(R[dP][Tic]W[dH]W))
- EC50 [1]: 204 ± 8.1 nM

SMILES: N=C(N)NCCC[C@@H]1NC(=O)[C@H](Cc2c[nH]c3ccccc23)NC(=O)[C@@H](CCCNC(=N)N)NC(=O)[C@H](Cc2c[nH]c3ccccc23)NC(=O)[C@@H]2Cc3ccccc3CN2C(=O)[C@H]2CCCN2C1=O [compound 13, cyclo(-Trp-^DArg-Trp-Arg-^DPro-Tic-)] (cyclo(R[dP][Tic]W[dR]W))
- EC50 [1]: 128 ± 32.5 nM

SMILES: N=C(N)NCCC[C@@H]1NC(=O)[C@H](Cc2c[nH]c3ccccc23)NC(=O)[C@@H](CCCN)NC(=O)[C@H](Cc2c[nH]c3ccccc23)NC(=O)[C@@H]2Cc3ccccc3CN2C(=O)[C@H]2CCCN2C1=O [compound 14, cyclo(-Trp-^DOrn-Trp-Arg-^DPro-Tic-)] (cyclo(R[dP][Tic]W[dOrn]W))
- EC50 [1]: 111 ± 75.4 nM

SMILES: N=C(N)NCCC[C@@H]1NC(=O)[C@H](Cc2ccccc2)NC(=O)[C@@H](Cc2ccccc2)NC(=O)[C@H](Cc2c[nH]c3ccccc23)NC(=O)[C@@H]2Cc3ccccc3CN2C(=O)[C@H]2CCCN2C1=O [compound 15, cyclo(-Trp-^DPhe-Phe-Arg-^DPro-Tic-)] (cyclo(FR[dP][Tic]W[dF]))
- EC50 [1]: 75.7 ± 41.5 nM

SMILES: N=C(N)NCCC[C@@H]1NC(=O)[C@H](Cc2ccc(O)cc2)NC(=O)[C@@H](Cc2ccccc2)NC(=O)[C@H](Cc2c[nH]c3ccccc23)NC(=O)[C@@H]2Cc3ccccc3CN2C(=O)[C@H]2CCCN2C1=O [compound 16, cyclo(-Trp-^DPhe-Tyr-Arg-^DPro-Tic-)] (cyclo(R[dP][Tic]W[dF]Y))
- EC50 [1]: 326 ± 99.8 nM

SMILES: N=C(N)NCCC[C@@H]1NC(=O)[C@H](Cc2ccc3ccccc3c2)NC(=O)[C@@H](Cc2ccccc2)NC(=O)[C@H](Cc2c[nH]c3ccccc23)NC(=O)[C@@H]2Cc3ccccc3CN2C(=O)[C@H]2CCCN2C1=O [compound 17, cyclo(-Trp-^DPhe-2Nal-Arg-^DPro-Tic-)] (cyclo([2Nal]R[dP][Tic]W[dF]))
- EC50 [1]: 16.9 ± 7.3 nM

SMILES: CC[C@H](C)[C@@H]1NC(=O)[C@@H](Cc2ccccc2)NC(=O)[C@H](Cc2c[nH]c3ccccc23)NC(=O)[C@@H]2Cc3ccccc3CN2C(=O)[C@H]2CCCN2C(=O)[C@H](CCCNC(=N)N)NC1=O [compound 18, cyclo(-Trp-^DPhe-Ile-Arg-^DPro-Tic-)] (cyclo(IR[dP][Tic]W[dF]))
- EC50 [1]: 148 ± 96.8 nM

SMILES: N=C(N)NCCC[C@@H]1NC(=O)[C@@H](Cc2ccccc2)NC(=O)[C@H](Cc2c[nH]c3ccccc23)NC(=O)[C@@H]2Cc3ccccc3CN2C(=O)[C@H]2CCCN2C(=O)[C@H](CCCNC(=N)N)NC1=O [compound 19, cyclo(-Trp-^DPhe-Arg-Arg-^DPro-Tic-)] (cyclo(RR[dP][Tic]W[dF]))
- EC50 [1]: 178 ± 102 nM

SMILES: NCCCC[C@@H]1NC(=O)[C@H](Cc2c[nH]c3ccccc23)NC(=O)[C@@H](Cc2ccccc2)NC(=O)[C@H](Cc2c[nH]c3ccccc23)NC(=O)[C@@H]2Cc3ccccc3CN2C(=O)[C@H]2CCCN2C1=O [compound 20, cyclo(-Trp-^DPhe-Trp-Lys-^DPro-Tic-)] (cyclo(K[dP][Tic]W[dF]W))
- EC50 [1]: 16.5 ± 8 nM

SMILES: NCCC[C@@H]1NC(=O)[C@H](Cc2c[nH]c3ccccc23)NC(=O)[C@@H](Cc2ccccc2)NC(=O)[C@H](Cc2c[nH]c3ccccc23)NC(=O)[C@@H]2Cc3ccccc3CN2C(=O)[C@H]2CCCN2C1=O [compound 21, cyclo(-Trp-^DPhe-Trp-Orn-^DPro-Tic-)] (cyclo([Orn][dP][Tic]W[dF]W))
- EC50 [1]: 12.1 nM
